Values joined by “and” are separate entries in the source; they are usually repeats but may differ in a detail not shown here. Equal values may be shown once.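 Results reflect a 48-hour exposure of cells in 96-well plates to compound at five concentrations. Abbreviation: GI50, concentration required for 50% inhibition of growth. At the TGI there is no net growth.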
Assays:
Experiment in all cases: inhibition of tumour cell growth, NCI panel, 48 h
786-0 renal = tested on: 786-0 renal
A498 renal = tested on: A498 renal
A549 NSCLC = tested on: A549 NSCLC
ACHN renal = tested on: ACHN renal
CAKI-1 renal = tested on: CAKI-1 renal
CCRF-CEM leukemia = tested on: CCRF-CEM leukemia
COLO 205 colon = tested on: COLO 205 colon
DU-145 prostate = tested on: DU-145 prostate
EKVX NSCLC = tested on: EKVX NSCLC
HCC-2998 colon = tested on: HCC-2998 colon
HCT-116 colon = tested on: HCT-116 colon
HCT-15 colon = tested on: HCT-15 colon
HL-60(TB) leukemia = tested on: HL-60(TB) leukemia
HOP-62 NSCLC = tested on: HOP-62 NSCLC
HOP-92 NSCLC = tested on: HOP-92 NSCLC
HS 578T breast = tested on: HS 578T breast
HT29 colon = tested on: HT29 colon
IGROV1 ovarian = tested on: IGROV1 ovarian
K-562 leukemia = tested on: K-562 leukemia
KM12 colon = tested on: KM12 colon
LOX IMVI melanoma = tested on: LOX IMVI melanoma
M14 melanoma = tested on: M14 melanoma
MALME-3M melanoma = tested on: MALME-3M melanoma
MCF7 breast = tested on: MCF7 breast
MDA-MB-231 breast = tested on: MDA-MB-231 breast
MDA-N = tested on: MDA-N
MOLT-4 leukemia = tested on: MOLT-4 leukemia
NCI-H226 lung = tested on: NCI-H226 lung
NCI-H23 lung = tested on: NCI-H23 lung
NCI-H460 lung = tested on: NCI-H460 lung
NCI-H522 lung = tested on: NCI-H522 lung
NCI/ADR-RES ovarian = tested on: NCI/ADR-RES ovarian
OVCAR-3 ovarian = tested on: OVCAR-3 ovarian
OVCAR-4 ovarian = tested on: OVCAR-4 ovarian
OVCAR-5 ovarian = tested on: OVCAR-5 ovarian
OVCAR-8 ovarian = tested on: OVCAR-8 ovarian
PC-3 prostate = tested on: PC-3 prostate
RPMI-8226 leukemia = tested on: RPMI-8226 leukemia
RXF 393 renal = tested on: RXF 393 renal
SF-268 CNS = tested on: SF-268 CNS
SF-295 CNS = tested on: SF-295 CNS
SF-539 CNS = tested on: SF-539 CNS
SK-MEL-2 melanoma = tested on: SK-MEL-2 melanoma
SK-MEL-28 melanoma = tested on: SK-MEL-28 melanoma
SK-MEL-5 melanoma = tested on: SK-MEL-5 melanoma
SK-OV-3 ovarian = tested on: SK-OV-3 ovarian
SN12C renal = tested on: SN12C renal
SR leukemia = tested on: SR leukemia
SW-620 colon = tested on: SW-620 colon
TK-10 renal = tested on: TK-10 renal
U251 CNS = tested on: U251 CNS
UACC-257 melanoma = tested on: UACC-257 melanoma
UACC-62 melanoma = tested on: UACC-62 melanoma
UO-31 renal = tested on: UO-31 renal

COc1cccc(-c2cc(=O)c3cc(OC)ccc3[nH]2)c1
GI50 (786-0 renal): 150 nM | TGI (786-0 renal): 65300 nM | TGI (A498 renal): 111 nM | GI50 (A549 NSCLC): 305 nM | TGI (A549 NSCLC): > 100000 nM | GI50 (ACHN renal): 661 nM | TGI (ACHN renal): > 100000 nM | GI50 (CAKI-1 renal): 31.9 nM | TGI (CAKI-1 renal): > 100000 nM | GI50 (CCRF-CEM leukemia): 28.1 nM | TGI (CCRF-CEM leukemia): 248 nM | GI50 (COLO 205 colon): 74.1 nM | TGI (COLO 205 colon): 480 nM and 411 nM | GI50 (DU-145 prostate): 186 nM | GI50 (EKVX NSCLC): 5850 nM | TGI (EKVX NSCLC): > 100000 nM | GI50 (HCC-2998 colon): 118 nM | TGI (HCC-2998 colon): 2590 nM and 443 nM | GI50 (HCT-116 colon): 54.1 nM | TGI (HCT-116 colon): 22600 nM | GI50 (HCT-15 colon): 48.5 nM | GI50 (HL-60(TB) leukemia): 19.4 nM | TGI (HL-60(TB) leukemia): 405 nM and 53.6 nM | GI50 (HOP-62 NSCLC): 401 nM | TGI (HOP-62 NSCLC): 29700 nM | GI50 (HOP-92 NSCLC): 7150 nM | TGI (HS 578T breast): 885 nM | TGI (HT29 colon): 1420 nM | GI50 (IGROV1 ovarian): 250 nM | TGI (IGROV1 ovarian): > 100000 nM | GI50 (K-562 leukemia): 28.8 nM | TGI (K-562 leukemia): 393 nM | GI50 (KM12 colon): 67.1 nM | TGI (KM12 colon): > 100000 nM | GI50 (LOX IMVI melanoma): 62.4 nM | GI50 (M14 melanoma): 84 nM | TGI (M14 melanoma): 41500 nM | GI50 (MALME-3M melanoma): 47.9 nM | TGI (MALME-3M melanoma): > 100000 nM | GI50 (MCF7 breast): 296 nM | TGI (MCF7 breast): > 100000 nM | TGI (MDA-MB-231 breast): 4530 nM and 21600 nM | TGI (MDA-N): 131 nM | GI50 (MOLT-4 leukemia): 41.1 nM | GI50 (NCI-H226 lung): 121 nM | TGI (NCI-H226 lung): 1570 nM and 7230 nM | GI50 (NCI-H23 lung): 358 nM | GI50 (NCI-H460 lung): 82.3 nM | TGI (NCI-H460 lung): > 100000 nM | GI50 (NCI-H522 lung): 121 nM and 37.3 nM | TGI (NCI-H522 lung): 392 nM and 175 nM | TGI (NCI/ADR-RES ovarian): 445 nM | GI50 (OVCAR-3 ovarian): 25 nM | TGI (OVCAR-3 ovarian): 384 nM and 81.2 nM | TGI (OVCAR-4 ovarian): > 100000 nM | GI50 (OVCAR-5 ovarian): 528 nM | TGI (OVCAR-5 ovarian): > 100000 nM | GI50 (OVCAR-8 ovarian): 790 nM | GI50 (PC-3 prostate): 112 nM | TGI (PC-3 prostate): > 100000 nM | GI50 (RPMI-8226 leukemia): 28.8 nM | GI50 (RXF 393 renal): 14.4 nM | TGI (RXF 393 renal): 224 nM | GI50 (SF-268 CNS): 626 nM | TGI (SF-268 CNS): 24200 nM | GI50 (SF-295 CNS): 292 nM | TGI (SF-539 CNS): 451 nM | GI50 (SK-MEL-2 melanoma): 77.4 nM | TGI (SK-MEL-2 melanoma): 7110 nM and 20200 nM | GI50 (SK-MEL-28 melanoma): 612 nM and 85.2 nM | TGI (SK-MEL-28 melanoma): > 100000 nM | TGI (SK-MEL-5 melanoma): 2570 nM | TGI (SK-OV-3 ovarian): 41500 nM | GI50 (SN12C renal): 398 nM | TGI (SN12C renal): 47700 nM | TGI (SR leukemia): 664 nM | GI50 (SW-620 colon): 44.5 nM | TGI (SW-620 colon): > 100000 nM | TGI (TK-10 renal): 84900 nM | GI50 (U251 CNS): 57 nM | TGI (U251 CNS): 3360 nM and 13200 nM | GI50 (UACC-257 melanoma): 32.5 nM | TGI (UACC-257 melanoma): > 100000 nM | GI50 (UACC-62 melanoma): 45.9 nM | TGI (UACC-62 melanoma): > 100000 nM | GI50 (UO-31 renal): 484 nM | TGI (UO-31 renal): > 100000 nM

From PubChem BioAssay (NCI)
